Active and inactive are the calls of the source.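 How the source made its calls: active means parasite count per well reduced by over 3 SD from the mean, with host cell number above 80% of untreated; inactive means the rest.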
System: L. donovani amastigotes in THP-1 macrophages, DAPI imaging, 72 h
Experiment: antileishmanial activity in infected macrophages – imaging, THP-1 host macrophages, single concentration (AID 977614);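 further: signal is the parasite per host cell ratio from DAPI stained kinetoplasts and nuclei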

SMILES | AC50
COCC(=O)NC[C@H]1[C@@H](c2ccccc2)[C@@H](CO)N1C(=O)c1ccccc1 | > 10 µM (inactive)
C[C@H]1CN([C@@H](C)CO)C(=O)CCCn2cc(nn2)CO[C@@H]1CN(C)C(=O)NC1CCCCC1 | > 10 µM (inactive)
CC(=O)N1[C@@H]2CN(C(=O)c3ccc(F)cc3)c3ccccc3[C@@H]2[C@@H]1CO | > 10 µM (inactive)
CCCNC(=O)N1C[C@@H]2[C@H](c3ccccc31)[C@H](CO)N2Cc1cccc(OC)c1 | > 10 µM (inactive)
CCCNC(=O)N1[C@H](CNC(=O)c2cccc(F)c2)[C@@H](c2ccccc2)[C@@H]1CO | > 10 µM (inactive)
CC(C)NC(=O)N1[C@H](CO)[C@@H](c2ccccc2)[C@H]1CN(C)C(=O)c1cccnc1 | > 10 µM (inactive)
C[C@@H]1CN([C@H](C)CO)C(=O)CCCn2cc(nn2)CO[C@H]1CN(C)S(=O)(=O)c1ccc(-n2cccn2)cc1 | > 10 µM (inactive)
CN(C[C@@H]1N[C@H](CO)[C@H]1c1ccc(C2=CCCC2)cc1)C(=O)c1cccc(F)c1 | > 10 µM (inactive)
CCS(=O)(=O)N1[C@H](CO)[C@H](c2ccccc2)[C@H]1CN(C(C)=O)C1CCCC1 | > 10 µM (inactive)
C[C@H]1CN([C@@H](C)CO)C(=O)CCCn2nncc2CO[C@H]1CN(C)S(=O)(=O)c1ccc(Oc2ccccc2)nc1 | > 10 µM (inactive)
Cc1ccc(S(=O)(=O)N2C[C@H]3[C@@H](c4ccccc42)[C@@H](CO)N3Cc2cccnc2)cc1 | > 10 µM (inactive)
CC(=O)N1[C@@H](CO)[C@@H](c2ccccc2)[C@@H]1CNC(=O)CN1CCOCC1 | > 10 µM (inactive)
C[C@H](CO)N1C[C@H](C)[C@H](CN(C)S(=O)(=O)c2cn(C)cn2)OCc2cnnn2CCCC1=O | > 10 µM (inactive)
COCC(=O)N1[C@H](CO)[C@H]2c3ccccc3N(C(=O)c3cccnc3)C[C@H]21 | > 10 µM (inactive)
O=C(C1CCOCC1)N1C[C@@H]2[C@H](c3ccccc31)[C@@H](CO)N2C(=O)Nc1ccccc1F | > 10 µM (inactive)
C[C@@H]1CN([C@@H](C)CO)C(=O)CCCn2nncc2CO[C@H]1CN(C)Cc1ccccc1C(=O)O | > 10 µM (inactive)
COc1ccc(CN(C)C[C@@H]2OCc3cnnn3CCCC(=O)N([C@H](C)CO)C[C@H]2C)cc1 | > 10 µM (inactive)
Cc1cccc(S(=O)(=O)N2C[C@@H]3[C@H](c4ccccc42)[C@H](CO)N3C(=O)c2ccccc2)c1 | > 10 µM (inactive)
CN(C[C@H]1[C@@H](c2ccccc2)[C@H](CO)N1Cc1ccccn1)S(C)(=O)=O | > 10 µM (inactive)
COc1cccc(C(=O)N2C[C@H]3[C@@H](c4ccccc42)[C@@H](CO)N3C(=O)c2cccc(F)c2)c1 | > 10 µM (inactive)
CN(C[C@@H]1[C@@H](c2ccccc2)[C@H](CO)N1CC1CC1)C(=O)c1ccc(F)cc1 | > 10 µM (inactive)
CCC(=O)NC[C@H]1N[C@H](CO)[C@@H]1c1ccc(-c2cccnc2)cc1 | > 10 µM (inactive)
O=C(c1ccccc1F)N1C[C@@H]2[C@H](c3ccccc31)[C@H](CO)N2C(=O)Nc1ccccc1 | > 10 µM (inactive)
COc1cccc(NC(=O)N2[C@H](CO)[C@H](c3ccccc3)[C@H]2CNCC(C)C)c1 | > 10 µM (inactive)
Cc1noc(C)c1NC(=O)N(C)C[C@H]1OCc2cnnn2CCCC(=O)N([C@H](C)CO)C[C@H]1C | > 10 µM (inactive)
COc1ccccc1C(=O)N1C[C@H]2[C@@H](c3ccccc31)[C@@H](CO)N2CC1CCCC1 | > 10 µM (inactive)
CN1[C@@H](CO)[C@@H]2c3ccccc3NC[C@@H]21 | > 10 µM (inactive)

SMILES | AC50
O=C(Cc1ccccc1)N1C[C@H]2[C@@H](c3ccccc31)[C@@H](CO)N2S(=O)(=O)c1ccccc1 | > 10 µM (inactive)
OC[C@H]1[C@@H]2c3ccccc3NC[C@@H]2N1CC1CCOCC1 | > 10 µM (inactive)
COCC(=O)N1C[C@H]2[C@@H](c3ccccc31)[C@H](CO)N2Cc1cc(F)ccc1F | > 10 µM (inactive)
C[C@H]1CN([C@@H](C)CO)C(=O)CCCn2cc(nn2)CO[C@@H]1CN(C)C(=O)Nc1cccc(C(F)(F)F)c1 | > 10 µM (inactive)
CCN(C[C@@H]1N[C@H](CO)[C@H]1c1ccccc1)C(=O)c1ccncc1 | > 10 µM (inactive)
C[C@@H]1CN([C@@H](C)CO)C(=O)CCCn2nncc2CO[C@H]1CN(C)S(=O)(=O)c1ccc(Oc2ccccc2)nc1 | > 10 µM (inactive)
C[C@H](CO)N1C[C@H](C)[C@@H](CN(C)C(=O)Nc2ccc3c(c2)OCCO3)OCc2cnnn2CCCC1=O | > 10 µM (inactive)
O=C(CC(F)(F)F)N1C[C@H]2[C@@H](c3ccccc31)[C@@H](CO)N2C(=O)c1ccncc1 | > 10 µM (inactive)
N#Cc1cccc(-c2ccc([C@H]3[C@@H](CO)N[C@@H]3CNC(=O)C3CCC3)cc2)c1 | > 10 µM (inactive)
C[C@@H]1CN([C@@H](C)CO)C(=O)CCCn2nncc2CO[C@H]1CN(C)Cc1ccc(C(=O)Nc2ccccc2N)cc1 | > 10 µM (inactive)
CN(C[C@@H]1[C@@H](c2ccccc2)[C@@H](CO)N1Cc1ccccn1)S(C)(=O)=O | > 10 µM (inactive)
C[C@@H]1CN([C@H](C)CO)C(=O)CCCn2nncc2CO[C@@H]1CN(C)C(=O)c1ccc(N2CCN(C)CC2)cc1 | > 10 µM (inactive)
O=C(c1ccc2c(c1)OCO2)N1C[C@@H]2[C@H](c3ccccc31)[C@H](CO)N2Cc1cccnc1 | > 10 µM (inactive)
C[C@H]1CN([C@@H](C)CO)C(=O)CCCn2nncc2CO[C@@H]1CN(C)C(=O)c1ccc2ccn(C)c2c1 | > 10 µM (inactive)
COc1ccccc1NC(=O)N1C[C@@H]2[C@H](c3ccccc31)[C@@H](CO)N2CC1CCOCC1 | > 10 µM (inactive)
CC(=O)N1[C@H](CNC(=O)CN(C)C)[C@H](c2ccc(C3=CCCCC3)cc2)[C@@H]1CO | > 10 µM (inactive)
O=C(Nc1ccc(F)cc1)N1[C@@H]2CNc3ccccc3[C@@H]2[C@@H]1CO | > 10 µM (inactive)
C/C=C/c1ccc([C@H]2[C@@H](CN(C)C(=O)CC3CC3)N(C(=O)C3CC3)[C@H]2CO)cc1 | > 10 µM (inactive)
O=C(NC[C@H]1[C@H](c2ccccc2)[C@@H](CO)N1C(=O)C1CCC1)NC1CCCC1 | > 10 µM (inactive)
C/C=C/c1ccc([C@H]2[C@@H](CO)N(S(C)(=O)=O)[C@@H]2CN(C(C)=O)C(C)C)cc1 | > 10 µM (inactive)
C[C@H](CO)N1C[C@H](C)[C@@H](CN(C)CC2CCCCC2)OCc2cnnn2CCCC1=O | > 10 µM (inactive)
COCC(=O)N(C[C@H]1[C@H](c2ccccc2)[C@@H](CO)N1C(=O)NC(C)C)C(C)C | > 10 µM (inactive)
C[C@@H]1CN([C@H](C)CO)C(=O)CCCn2cc(nn2)CO[C@H]1CN(C)C(=O)Oc1ccc2ccccc2c1 | > 10 µM (inactive)
O=C(c1ccc2c(c1)OCO2)N1C[C@H]2[C@@H](c3ccccc31)[C@@H](CO)N2C(=O)CC1CC1 | > 10 µM (inactive)
C[C@@H]1CN([C@@H](C)CO)C(=O)CCCn2nncc2CO[C@@H]1CN(C)C(=O)CCC(F)(F)F | > 10 µM (inactive)
C[C@@H]1CN([C@@H](C)CO)C(=O)CCCn2nncc2CO[C@H]1CN(C)C(=O)NC1CCCC1 | > 10 µM (inactive)
CC(=O)N1[C@H](CO)[C@@H]2c3ccccc3N(C(=O)c3ccc(F)cc3)C[C@@H]21 | > 10 µM (inactive)

From PubChem BioAssay AID977614 (Broad Institute, 2014)
